# Measurements taken from ChEMBL document CHEMBL1201862, “PubChem BioAssay data set” (2004).
# Activity calls are given as the source filed them.
# Columns and labels:
# [1] = biological target: Mothers against decapentaplegic homolog 3 (Homo sapiens, UniProt P84022); experiment: blockers of Smad3 complex formation in lysate – cell lysate, secondary confirmation, chemiluminescent ELISA, HEK293 lysate, dose response (AID 1058); assay type: functional
# [2] = biological target: Scavenger receptor class B member 1 (Mus musculus, UniProt Q61009); experiment: mouse SR-BI DiI-HDL uptake blockers – ldlA[mSR-BI] cells, fluorescence, cherry pick, dose response (AID 493194); assay type: functional, cell-based;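 note: cellular uptake of fluorescent DiI-labeled HDL measured as cell fluorescence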
# INS1 = experiment: INS-1E survival protection against cytokine death – cell-based, luminescence, retest, dose response (AID 449756); assay type: functional; details: Rattus norvegicus;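 note: cell death triggered by IL-1 beta plus TNF-alpha plus IFN-gamma mixture; protective hits raise ATP signal compared with cytokine alone wells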
# [3] = biological target: G2/mitotic-specific cyclin-B1 (Homo sapiens, UniProt P14635); experiment: Counterscreen assay for inhibitors of Wee1 degradation: dose response cell-based assay to identify inhibitors of cyclin B degradation. [Related pubchem assays: 1410, 1321 ]; assay type: functional
# [4] = biological target: Sphingosine 1-phosphate receptor 1 (Homo sapiens, UniProt P21453); assay type: functional;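 note: Tango beta-arrestin reporter U2OS cells stimulated with S1P near its EC80; inhibitor potency meaning antagonism of receptor activation by the natural agonist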
# [5] = biological target: T1, Kappa-type opioid receptor (Homo sapiens, UniProt P41145); assay type: functional
# HeLa = experiment: Cytotoxicity counterscreen assay for transcriptional activators of heat shock protein 70 (Hsp70). [Related pubchem assays: 1203, 1252 ]; assay type: functional; details: Homo sapiens
# [6] = biological target: T2, Type-1 angiotensin II receptor (Homo sapiens, UniProt P30556); experiment: antagonism of angiotensin II type 1 receptor – cell-based, uHTS hits, selectivity assay for APJ receptor antagonist project, dose response (AID 463214); assay type: functional;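 note: antagonist potency against angiotensin II stimulated AT1 response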
# T2 sequence (P30556 whole entry): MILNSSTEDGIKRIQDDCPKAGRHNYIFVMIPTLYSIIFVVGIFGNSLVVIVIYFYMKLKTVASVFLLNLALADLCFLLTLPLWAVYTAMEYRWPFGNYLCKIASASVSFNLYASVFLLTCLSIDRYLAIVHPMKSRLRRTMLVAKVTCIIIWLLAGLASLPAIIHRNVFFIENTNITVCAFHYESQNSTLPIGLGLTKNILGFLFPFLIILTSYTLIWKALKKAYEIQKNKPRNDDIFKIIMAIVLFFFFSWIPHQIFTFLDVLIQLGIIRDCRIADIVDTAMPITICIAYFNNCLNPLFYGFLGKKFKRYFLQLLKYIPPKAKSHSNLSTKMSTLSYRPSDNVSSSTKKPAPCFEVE
# [7] = Luminescence Cell-Based Dose Confirmation HTS to Identify Inhibitors of Platelet Dense Granule Release. [Related pubchem assays: 1663 (Primary HTS), 1678 (Summary of Project)]; assay type: functional
# [8] = HEK-293T viability loss after treatment – luminescence, T-cell screen hits, cytotoxicity control for TCR NF-kB inhibitor project, dose response (AID 489026); assay type: functional, cell-based;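 note: cells exposed to compound about 14 hours before the viability readout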
# [9] = Luminescence-based dose response cell-based high throughput screening assay for cytotoxic compounds using the IEC-6 intestinal epithelial cell line. [Related pubchem assays: 1858 (Summary AID.), 1825 (Counterscreen.), 1907 (Confirmation screen.)]; assay type: functional
# [10] = microbe, parasite or virus in culture; assay type: functional; details: Mycobacterium tuberculosis
# [11] = biological target: Sphingosine 1-phosphate receptor 4 (Homo sapiens, UniProt O95977); experiment: Fluorescence dose response cell-based high throughput screening assay for antagonists of the Sphingosine 1-Phosphate Receptor 4 (S1P4). [Related pubchem assays: 1524 (Confirmation in triplicates.), 1510 (Primary screen.)]; assay type: functional
# Beta-galactosidase [12] = biological target: T3, Beta-galactosidase (Escherichia coli, UniProt Q8VNN2); assay type: functional
# [13] = biological target: E3 ubiquitin-protein ligase Mdm2 (Homo sapiens, UniProt Q00987); experiment: MDM2-luc reporter signal enhancers, multi-concentration potency testing, MDM2 ubiquitin-protein ligase inhibitor program, whole-cell format, luminescence detection, 384-well microplate (AID 1394); assay type: functional;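 note: MDM2 E3 inhibitors raise luminescence so EC50 is for signal enhancement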
# [14] = biological target: Sphingosine 1-phosphate receptor 2 (Homo sapiens, UniProt O95136); experiment: Dose Response Cell Based Assay for Antagonists of the S1P2 Receptor. [Related pubchem assays: 856, 736 ]; assay type: functional
# [15] = biological target: T1, Kappa-type opioid receptor; assay type: functional; remark: listed apart in the source
# Beta-galactosidase [16] = biological target: T3, Beta-galactosidase; experiment: PubChem AID 485352; assay type: functional
# [17] = biological target: Luciferin 4-monooxygenase (Photinus pyralis, UniProt P08659); experiment: inhibition of purified Photinus pyralis luciferase – biochemical, luminescence, dose response (AID 1891)
# Wee1-like protein kinase = Wee1-like protein kinase (Homo sapiens, UniProt P30291); experiment: Dose Response Cell-based Assay for Inhibitors of Wee1 Degradation. [Related pubchem assays: 1410, 1321 ]; assay type: functional
# SUMO-activating enzyme [18] = biological target: T4, SUMO-activating enzyme (Homo sapiens, UniProt Q9UBT2); experiment: blockers of SAE1/SAE2–UBC9 SUMO transfer – biochemical, HTRF, uHTS, primary screen (AID 2006); assay type: protein-complex assay
# [19] = biological target: Likely tRNA 2'-phosphotransferase (Candida albicans (strain SC5314 / ATCC MYA-2876) (Yeast), UniProt Q5A7N4); experiment: inhibition of Candida TPT1 enzyme activity – biochemical, fluorescence polarization, dose response (AID 2160)
# [20] = biological target: Guanyl-specific ribonuclease T1 (Aspergillus oryzae (strain ATCC 42149 / RIB 40), UniProt P00651); experiment: inhibition of ribonuclease T1 activity – biochemical, fluorescence polarization, 1536-well, counter-screen for TPT1 inhibitor project, dose response (AID 2167)
# SUMO-activating enzyme [21] = biological target: T4, SUMO-activating enzyme; experiment: blockers of UBC9-mediated SUMO conjugation – biochemical, AlphaScreen, SUMOylation inhibitor project, confirmation (AID 2018); assay type: functional
# [22] = ADP-Glo luciferase signal interference – biochemical, luminescence, cherry-picked samples, set 2, artefact control for CDK5 inhibitor project, dose response (AID 504546); assay type: functional, cell-based
# [23] = biological target: Lysosomal acid glucosylceramidase (Homo sapiens, UniProt P04062); experiment: Dose response cell-based high throughput screening assay to identify enhancers of beta-glucosidase activity. [Related pubchem assays: 784 ]; assay type: functional
# Interleukin-8 = biological target: T5, Interleukin-8 (Homo sapiens, UniProt P10145); experiment: SAR analysis of tumor necrosis factor alpha (TNF-alpha) induced IL-8 secretion in MCF-7/NOD1 cells. [Related pubchem assays (depositor defined):AID1575, AID2250, AID2260]; assay type: functional, cell-based
# T5 sequence (P10145 whole entry): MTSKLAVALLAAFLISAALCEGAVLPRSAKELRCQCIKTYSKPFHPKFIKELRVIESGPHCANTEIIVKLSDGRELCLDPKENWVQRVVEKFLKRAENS
# Protein Rev = Protein Rev (Human immunodeficiency virus type 1 group M subtype B (isolate WMJ22)(HIV-1), UniProt P05866); experiment: inhibitors of Rev protein–RRE RNA complex – biochemical, protein-RNA interaction, dose response (AID 842); set-up: species or system Human immunodeficiency virus 1
# Tumor necrosis factor = Tumor necrosis factor (Homo sapiens, UniProt P01375); experiment: analog potency on TNFa NF-kB signaling – cell-based, revised, SAR follow-up (AID 2337); assay type: functional
# HEK293 = experiment: cells; details: Homo sapiens;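 note: cells exposed to compound for 14 hours overnight before viability readout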
# [24] = biological target: T6, Nucleotide-binding oligomerization domain-containing protein 1 (Homo sapiens, UniProt Q9Y239); experiment: blockers of NOD1 pathway activity – revised, SAR follow-up (AID 2333); assay type: functional
# T6 sequence (Q9Y239 whole entry): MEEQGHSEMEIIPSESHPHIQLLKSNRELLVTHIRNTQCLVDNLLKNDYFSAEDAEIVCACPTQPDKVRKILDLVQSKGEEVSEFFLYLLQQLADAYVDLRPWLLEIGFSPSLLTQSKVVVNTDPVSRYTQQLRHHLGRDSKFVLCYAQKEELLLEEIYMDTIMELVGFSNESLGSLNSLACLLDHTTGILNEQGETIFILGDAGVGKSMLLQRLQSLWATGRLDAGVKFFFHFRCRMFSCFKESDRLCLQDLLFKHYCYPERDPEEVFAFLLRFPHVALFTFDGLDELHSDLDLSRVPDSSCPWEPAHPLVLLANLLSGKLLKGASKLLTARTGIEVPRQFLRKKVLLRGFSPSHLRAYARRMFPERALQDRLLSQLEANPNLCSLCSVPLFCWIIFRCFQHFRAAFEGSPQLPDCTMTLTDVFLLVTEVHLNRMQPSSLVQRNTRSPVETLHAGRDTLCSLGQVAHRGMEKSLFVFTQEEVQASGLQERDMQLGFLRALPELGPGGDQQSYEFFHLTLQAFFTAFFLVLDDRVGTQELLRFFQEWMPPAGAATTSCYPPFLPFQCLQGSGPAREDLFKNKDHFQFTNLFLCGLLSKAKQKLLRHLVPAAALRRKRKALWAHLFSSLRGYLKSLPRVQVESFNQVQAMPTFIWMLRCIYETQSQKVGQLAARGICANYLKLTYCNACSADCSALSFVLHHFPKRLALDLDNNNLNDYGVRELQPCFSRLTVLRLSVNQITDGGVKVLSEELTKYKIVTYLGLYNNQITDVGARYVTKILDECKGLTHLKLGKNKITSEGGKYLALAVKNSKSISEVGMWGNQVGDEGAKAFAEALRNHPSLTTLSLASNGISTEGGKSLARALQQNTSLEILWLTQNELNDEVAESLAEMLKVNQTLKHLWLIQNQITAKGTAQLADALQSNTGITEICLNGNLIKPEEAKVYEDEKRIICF
# [25] = biological target: Nucleotide-binding oligomerization domain-containing protein 2 (Homo sapiens, UniProt Q9HC29); experiment: PubChem AID 2334; assay type: functional
# Staphylococcus aureus = experiment: Inhibitors of Bacterial Quorum Sensing Structure Activity Relationship (SAR) Analysis: Dose Response Assay. [Related pubchem assays: 700, 527 ]; assay type: functional, organism-based
# Cytochrome P450 2C9 = Cytochrome P450 2C9 (Homo sapiens, UniProt P11712); details: Potency
# [26] = viability loss in CEM21 cells – cell-based, CellTiter-Glo luminescence, cherry-picked, cytotoxicity control for viral fusion inhibitor project, dose response (AID 652042); assay type: functional;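 note: potency for signal decrease meaning cytotoxicity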
# [27] = blockers of HIV-1 envelope-mediated cell-cell fusion – cherry-pick, dose response (AID 652057); assay type: functional, cell-based
# [28] = off-target signal loss in HeLa-CEM21 co-culture – HeLa F-luc CTL cells, cherry-picked, counter-screen for HIV-1 Env fusion inhibitor project, dose response (AID 652040); assay type: functional, cell-based;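 note: potency for signal decrease marking cytotoxic or nonspecific inhibition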
# [29] = HIV-1 AD8 envelope cell-cell fusion blockers – cherry-pick, dose response (AID 652062); assay type: functional, cell-based;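 note: luciferase signal from cell-cell fusion driven by HIV-1 clade B AD8 Env; potency is for inhibitors of fusion seen as a drop in luminescence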
# Cytochrome P450 2C19 = Cytochrome P450 2C19 (Homo sapiens, UniProt P33261); experiment: qHTS Assay for Inhibitors and Substrates of Cytochrome P450 2C19. [Related pubchem assays: 410 ]; assay type: ADME; details: read-out: Potency
# [30] = blockers of HIV-1 ZM109 envelope-driven cell-cell fusion – HeLa effector, CEM target cells, luciferase, cherry-pick, dose response (AID 652058); assay type: functional, cell-based;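 note: luciferase signal from HIV-1 Env mediated cell-cell fusion of effector and target cells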
# T3 sequence (Q8VNN2 whole entry): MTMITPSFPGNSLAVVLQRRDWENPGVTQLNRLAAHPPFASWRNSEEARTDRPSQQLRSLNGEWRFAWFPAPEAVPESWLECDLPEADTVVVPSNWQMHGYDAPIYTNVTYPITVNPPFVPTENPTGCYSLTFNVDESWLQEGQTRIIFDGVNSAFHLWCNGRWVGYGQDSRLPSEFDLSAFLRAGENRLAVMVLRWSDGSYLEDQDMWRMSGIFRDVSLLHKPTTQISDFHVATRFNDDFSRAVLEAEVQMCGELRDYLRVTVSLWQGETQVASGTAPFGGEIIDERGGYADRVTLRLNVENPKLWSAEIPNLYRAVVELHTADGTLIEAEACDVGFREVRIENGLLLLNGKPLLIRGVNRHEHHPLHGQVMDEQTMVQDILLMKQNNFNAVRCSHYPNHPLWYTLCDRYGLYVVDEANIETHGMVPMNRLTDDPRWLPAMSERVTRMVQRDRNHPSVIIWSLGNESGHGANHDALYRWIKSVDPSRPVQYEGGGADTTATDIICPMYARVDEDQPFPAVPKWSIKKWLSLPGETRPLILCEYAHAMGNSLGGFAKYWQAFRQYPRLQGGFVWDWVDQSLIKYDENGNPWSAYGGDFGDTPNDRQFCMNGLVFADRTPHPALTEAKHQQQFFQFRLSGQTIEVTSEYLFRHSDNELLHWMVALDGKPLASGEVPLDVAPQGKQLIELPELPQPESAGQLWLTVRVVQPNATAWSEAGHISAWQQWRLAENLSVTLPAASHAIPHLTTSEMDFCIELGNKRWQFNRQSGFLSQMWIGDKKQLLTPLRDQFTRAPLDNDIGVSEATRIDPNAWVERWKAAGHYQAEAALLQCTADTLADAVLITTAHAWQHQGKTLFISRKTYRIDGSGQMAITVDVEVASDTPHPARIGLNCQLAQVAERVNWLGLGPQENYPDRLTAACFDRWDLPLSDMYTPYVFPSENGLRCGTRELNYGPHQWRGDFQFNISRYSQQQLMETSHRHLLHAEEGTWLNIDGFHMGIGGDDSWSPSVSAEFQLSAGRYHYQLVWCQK
# T4 sequence (Q9UBE0 whole entry): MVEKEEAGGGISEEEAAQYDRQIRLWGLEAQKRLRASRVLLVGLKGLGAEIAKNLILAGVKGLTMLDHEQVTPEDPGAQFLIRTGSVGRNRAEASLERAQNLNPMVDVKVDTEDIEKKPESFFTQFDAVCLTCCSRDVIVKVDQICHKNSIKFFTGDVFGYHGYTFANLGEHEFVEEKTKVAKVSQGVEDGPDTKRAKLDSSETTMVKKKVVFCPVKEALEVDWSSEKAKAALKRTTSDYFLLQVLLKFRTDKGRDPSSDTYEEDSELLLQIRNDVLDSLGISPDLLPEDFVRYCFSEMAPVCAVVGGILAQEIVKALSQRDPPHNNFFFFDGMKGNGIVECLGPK
# T4 sequence (Q9UBT2 whole entry): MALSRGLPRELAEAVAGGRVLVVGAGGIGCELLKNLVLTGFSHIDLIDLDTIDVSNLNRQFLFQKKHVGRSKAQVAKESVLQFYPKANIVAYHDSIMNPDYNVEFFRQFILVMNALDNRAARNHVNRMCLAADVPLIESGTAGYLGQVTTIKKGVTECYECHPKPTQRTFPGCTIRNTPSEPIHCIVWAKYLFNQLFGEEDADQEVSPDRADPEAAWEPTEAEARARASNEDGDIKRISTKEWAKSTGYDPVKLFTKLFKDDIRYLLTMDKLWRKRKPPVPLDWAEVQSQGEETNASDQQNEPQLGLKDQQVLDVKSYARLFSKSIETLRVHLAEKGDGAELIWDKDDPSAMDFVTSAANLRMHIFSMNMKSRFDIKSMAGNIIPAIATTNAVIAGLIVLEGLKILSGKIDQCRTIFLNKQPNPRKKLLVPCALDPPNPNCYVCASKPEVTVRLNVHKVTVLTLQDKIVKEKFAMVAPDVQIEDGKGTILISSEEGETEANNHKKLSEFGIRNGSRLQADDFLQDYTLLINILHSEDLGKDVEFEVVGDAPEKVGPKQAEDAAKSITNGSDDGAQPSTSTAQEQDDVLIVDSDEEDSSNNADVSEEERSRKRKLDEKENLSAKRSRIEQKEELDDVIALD
# T1 sequence (P41145 whole entry): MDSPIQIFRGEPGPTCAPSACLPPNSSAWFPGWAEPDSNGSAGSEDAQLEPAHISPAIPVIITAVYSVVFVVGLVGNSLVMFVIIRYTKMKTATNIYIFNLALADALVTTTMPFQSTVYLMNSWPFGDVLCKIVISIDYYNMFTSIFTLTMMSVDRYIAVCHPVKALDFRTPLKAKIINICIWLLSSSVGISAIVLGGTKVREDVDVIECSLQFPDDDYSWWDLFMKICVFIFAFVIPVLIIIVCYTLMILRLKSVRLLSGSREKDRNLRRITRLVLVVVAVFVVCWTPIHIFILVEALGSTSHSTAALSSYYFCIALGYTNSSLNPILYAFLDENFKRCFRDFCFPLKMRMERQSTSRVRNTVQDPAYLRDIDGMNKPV
# Sequence of Luciferin 4-monooxygenase (P08659 whole entry): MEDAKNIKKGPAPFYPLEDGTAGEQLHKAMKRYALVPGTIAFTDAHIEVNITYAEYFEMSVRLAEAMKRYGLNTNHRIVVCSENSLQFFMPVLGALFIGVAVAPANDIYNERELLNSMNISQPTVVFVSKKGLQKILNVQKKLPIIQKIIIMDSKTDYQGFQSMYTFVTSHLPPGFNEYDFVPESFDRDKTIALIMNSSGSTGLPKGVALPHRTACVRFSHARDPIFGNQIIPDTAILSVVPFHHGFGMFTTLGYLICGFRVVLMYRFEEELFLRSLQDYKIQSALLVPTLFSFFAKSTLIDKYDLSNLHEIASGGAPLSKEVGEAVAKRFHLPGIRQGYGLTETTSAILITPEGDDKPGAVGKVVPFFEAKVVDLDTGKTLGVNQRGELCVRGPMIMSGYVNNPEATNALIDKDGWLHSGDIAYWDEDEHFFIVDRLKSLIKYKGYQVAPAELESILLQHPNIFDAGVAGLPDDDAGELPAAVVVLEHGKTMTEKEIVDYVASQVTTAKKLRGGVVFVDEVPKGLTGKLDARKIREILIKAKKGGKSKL
# Sequence of Scavenger receptor class B member 1 (Q61009 whole entry): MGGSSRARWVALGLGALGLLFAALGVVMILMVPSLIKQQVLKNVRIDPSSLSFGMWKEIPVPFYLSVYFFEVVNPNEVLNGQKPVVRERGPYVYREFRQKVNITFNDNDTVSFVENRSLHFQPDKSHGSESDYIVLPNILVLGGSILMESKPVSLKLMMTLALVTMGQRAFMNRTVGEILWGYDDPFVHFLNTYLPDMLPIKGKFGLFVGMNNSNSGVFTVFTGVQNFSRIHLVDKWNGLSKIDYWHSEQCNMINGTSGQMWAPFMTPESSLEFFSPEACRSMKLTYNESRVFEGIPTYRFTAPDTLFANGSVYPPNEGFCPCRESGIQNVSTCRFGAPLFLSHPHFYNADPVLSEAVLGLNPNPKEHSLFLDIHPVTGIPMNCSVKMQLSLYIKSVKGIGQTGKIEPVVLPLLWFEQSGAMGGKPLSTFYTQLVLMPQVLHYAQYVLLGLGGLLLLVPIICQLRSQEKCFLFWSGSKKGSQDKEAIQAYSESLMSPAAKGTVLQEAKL
# Sequence of Sphingosine 1-phosphate receptor 2 (O95136 whole entry): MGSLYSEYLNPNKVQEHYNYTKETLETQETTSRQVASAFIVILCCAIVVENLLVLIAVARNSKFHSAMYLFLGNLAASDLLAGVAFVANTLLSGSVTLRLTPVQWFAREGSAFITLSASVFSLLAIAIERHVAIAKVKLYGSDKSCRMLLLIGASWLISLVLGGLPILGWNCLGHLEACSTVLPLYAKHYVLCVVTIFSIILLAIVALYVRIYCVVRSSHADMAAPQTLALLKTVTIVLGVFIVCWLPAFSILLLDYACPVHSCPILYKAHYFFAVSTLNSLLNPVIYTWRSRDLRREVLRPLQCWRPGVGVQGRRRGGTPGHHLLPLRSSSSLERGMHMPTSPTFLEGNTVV
# Sequence of Mothers against decapentaplegic homolog 3 (P84022 whole entry): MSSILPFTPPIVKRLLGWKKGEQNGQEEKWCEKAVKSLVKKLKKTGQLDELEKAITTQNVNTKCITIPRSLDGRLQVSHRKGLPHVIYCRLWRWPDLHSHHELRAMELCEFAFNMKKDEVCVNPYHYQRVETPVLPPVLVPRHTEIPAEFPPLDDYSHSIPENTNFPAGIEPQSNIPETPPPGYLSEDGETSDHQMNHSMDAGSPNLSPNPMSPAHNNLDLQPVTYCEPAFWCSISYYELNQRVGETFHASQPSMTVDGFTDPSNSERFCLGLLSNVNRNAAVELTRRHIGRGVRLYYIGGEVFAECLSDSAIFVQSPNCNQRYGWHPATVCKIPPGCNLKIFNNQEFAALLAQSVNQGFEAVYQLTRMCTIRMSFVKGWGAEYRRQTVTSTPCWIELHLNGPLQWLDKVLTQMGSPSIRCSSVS
# Sequence of Sphingosine 1-phosphate receptor 1 (P21453 whole entry): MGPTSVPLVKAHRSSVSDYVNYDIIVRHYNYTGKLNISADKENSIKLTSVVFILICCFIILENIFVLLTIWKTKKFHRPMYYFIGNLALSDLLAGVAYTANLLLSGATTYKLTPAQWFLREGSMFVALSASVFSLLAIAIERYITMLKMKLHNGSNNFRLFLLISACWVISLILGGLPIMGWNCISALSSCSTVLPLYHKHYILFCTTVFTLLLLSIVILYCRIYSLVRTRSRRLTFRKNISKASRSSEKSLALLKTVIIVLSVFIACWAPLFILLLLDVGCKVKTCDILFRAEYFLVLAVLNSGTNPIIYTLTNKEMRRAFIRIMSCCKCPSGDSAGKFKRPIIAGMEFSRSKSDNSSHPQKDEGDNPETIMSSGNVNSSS
# Sequence of Sphingosine 1-phosphate receptor 4 (O95977 whole entry): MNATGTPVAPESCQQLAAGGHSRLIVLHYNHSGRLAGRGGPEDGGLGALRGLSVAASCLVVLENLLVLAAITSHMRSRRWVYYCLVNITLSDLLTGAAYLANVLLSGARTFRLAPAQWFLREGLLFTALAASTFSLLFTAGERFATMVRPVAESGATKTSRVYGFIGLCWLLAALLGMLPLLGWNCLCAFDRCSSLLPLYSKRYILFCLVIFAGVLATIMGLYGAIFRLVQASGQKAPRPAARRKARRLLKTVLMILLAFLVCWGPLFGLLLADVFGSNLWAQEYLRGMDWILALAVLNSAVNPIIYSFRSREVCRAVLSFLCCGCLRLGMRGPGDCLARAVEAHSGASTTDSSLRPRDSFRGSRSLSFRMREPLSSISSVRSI
structure (smiles),measurement,setting,value
COc1ccc(C(c2cc3c(cc2O)OCO3)N2CCOCC2)cc1 (stereo unspecified),IC50,[1],6.51 µM (not active)
CC(=O)c1c(C(C)=O)c(C)n(-c2ccc(C)c(NC(=O)c3ccccc3Cl)c2)c1C,AC50,[2],43 nM (active)
COc1ccc(NC(=O)/C(Cl)=C(/Cl)[S+]([O-])Cc2ccc(C)cc2)cn1 (stereo unspecified),AC50,INS1,855 nM (active)
same,EC50,[3],> 49.7 µM (not active)
same,IC50,[4],4.46 µM (active)
same,IC50,[5],3.76 µM (active)
same,CC50,HeLa,1.12 µM (active)
same,IC50,[6],2.26 µM (active)
same,EC50,[7],5.74 µM (active)
same,IC50,[8],29.8 µM (inactive)
same,IC50,[9],879 nM (active)
same,CC50,[10],2.13 µM (active)
same,IC50,[11],396 nM (active)
same,EC50,Beta-galactosidase [12],> 31.5 µM (inactive)
same,EC50,[13],960 nM (active)
same,IC50,[14],967 nM (active)
same,IC50,[15],4.71 µM
same,EC50,Beta-galactosidase [16],> 40 µM (inactive)
same,EC50,[17],> 112 µM (not active)
same,EC50,Wee1-like protein kinase,> 49.7 µM (not active)
COc1cc(/C=C2\SC(=O)N(CC(=O)Nc3ccccc3F)C2=O)cc(Cl)c1O,IC50,SUMO-activating enzyme [18],15.6 µM (active)
same,IC50,[19],275 nM (active)
same,IC50,[20],238 nM (active)
same,IC50,SUMO-activating enzyme [21],22.1 µM (active)
COc1cccc(C(=O)O/N=C(\N)c2ccccn2)c1,EC50,[7],3.65 µM (active)
same,AC50,[22],26.7 µM (active)
CN(CC(=O)Nc1ccc(F)c(F)c1)S(=O)(=O)c1cccc2nsnc12,EC50,[23],> 50 µM (not active)
Nc1nc2ccccc2n1S(=O)(=O)c1ccc(Cl)cc1,IC50,Interleukin-8,> 5 µM (inactive)
COC(=O)c1c(C(=O)OC)n(CCCN)c2ccc(C)cc12,IC50,Protein Rev,> 79.4 µM (not active)
CN(C)c1ccc(C(=O)Nc2nc3ccccc3n2Cc2ccc(Cl)cc2)cc1,IC50,Tumor necrosis factor,> 20 µM (inactive)
same,IC50,HEK293,> 20 µM (inactive)
same,IC50,[24],> 20 µM (inactive)
same,IC50,[25],> 20 µM (inactive)
O=C(O)Cc1ccccc1Nc1c(Cl)cccc1Cl [DICLOFENAC],IC50,Staphylococcus aureus,943 nM (active)
COc1ccc2[nH]c(=O)c3c(c2c1)OC(C)(C)C=C3 [HAPLAMINE],AC50,Cytochrome P450 2C9,25.1 µM (inconclusive)
same,AC50,[26],14.8 µM (active)
same,AC50,[27],5.53 µM (active)
same,AC50,[28],10.4 µM (active)
same,AC50,[29],3.86 µM (active)
same,AC50,Cytochrome P450 2C19,7.94 µM (inconclusive)
same,AC50,[30],5.32 µM (active)
